Source: patent US6737383B1, “Herbicidal oxadiazolidines” (priority 1999, dated 2004)

Experiments:
pigweed = assay: Test B pre/postemergence pigweed; type: in vivo, Amaranthus retroflexus
Summary of the method: (§1)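 Test chemicals in a non-phytotoxic solvent mixture with surfactant were sprayed preemergence onto planted seeds and postemergence onto plants 2 to 18 cm tall (1- to 4-leaf stage). After twelve to sixteen days in a greenhouse, injury was visually rated against untreated controls from 0 (no effect) to 10 (complete control).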

crabgrass = assay: Test B pre/postemergence crabgrass; type: in vivo, Digitaria sanguinalis
Summary of the method: as §1

bedstraw = assay: Test B pre/postemergence bedstraw; type: in vivo, Galium aparine; details: Postemergence
Summary of the method: as §1

soybean = assay: Test B pre/postemergence soybean; type: in vivo, Glycine max
Summary of the method: as §1

wheat = assay: Test B pre/postemergence wheat; type: in vivo, Triticum aestivum
Summary of the method: as §1

rice = assay: Test B flood test rice; type: in vivo, Oryza sativa; details: for Rice plant response rating: Postemergence section (flood test species)
Summary of the method: (§2)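 Each value is a visual injury score relative to controls, with 10 meaning complete control and 0 no effect. Evaluation took place twelve to sixteen days after the 2-leaf-stage plants were treated and kept in the greenhouse.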

wild oat = assay: Test B pre/postemergence wild oat; type: in vivo, Avena fatua
Summary of the method: as §1

duck salad = assay: Test B flood test duck salad; type: in vivo, Heteranthera limosa
Summary of the method: as §2

sugar beet = assay: Test B pre/postemergence sugar beet; type: in vivo, Beta vulgaris
Summary of the method: as §1

purple nutsedge = assay: Test B pre/postemergence purple nutsedge; type: in vivo, Cyperus rotundus
Summary of the method: as §1

surinam grass = assay: Test B pre/postemergence surinam grass; type: in vivo, Brachiaria decumbens
Summary of the method: as §1

velvetleaf = assay: Test B pre/postemergence velvetleaf; type: in vivo, Abutilon theophrasti
Summary of the method: as §1

cocklebur = assay: Test B pre/postemergence cocklebur; type: in vivo, Xanthium strumarium
Summary of the method: as §1

corn = assay: Test B pre/postemergence corn; type: in vivo, Zea mays
Summary of the method: as §1

giant foxtail = assay: Test B pre/postemergence giant foxtail; type: in vivo, Setaria faberii
Summary of the method: as §1

blackgrass = assay: Test B pre/postemergence blackgrass; type: in vivo, Alopecurus myosuroides
Summary of the method: as §1

[1] = Postemergence, Rate 250 g/ha, scale 0 to 10, 0 is no effect, 10 is complete control
[2] = Postemergence, Rate 500 g/ha, scale of 0 to 10 where 0 is no effect and 10 is complete control
[3] = Preemergence, Rate 62 g/ha, scale 0 to 10 (0 no effect, 10 complete control)
[4] = Preemergence, Rate 125 g/ha, scale of 0 to 10 where 0 is no effect and 10 is complete control
[5] = Preemergence, Rate 250 g/ha, scale 0 to 10, 0 is no effect, 10 is complete control
[6] = Preemergence, Rate 500 g/ha, scale 0 to 10, 0 is no effect, 10 is complete control
[7] = Rate 125 g/ha, Postemergence, scale 0 to 10, 0 is no effect, 10 is complete control
[8] = Rate 62 g/ha, Postemergence, scale of 0 to 10 where 0 is no effect and 10 is complete control
[9] = Rate 500 g/ha, scale of 0 to 10 where 0 is no effect and 10 is complete control
[10] = Rate 125 g/ha, scale 0 to 10, 0 is no effect, 10 is complete control
[11] = flood test species, listed under Postemergence, Rate 250 g/ha, scale 0 to 10, 0 is no effect, 10 is complete control
[12] = Preemergence, Rate 250 g/ha, scale of 0 to 10 where 0 is no effect and 10 is complete control

CC(C)N(C(=O)n1oc(=O)n(C(CF)CF)c1=O)c1ccccc1 [Compound 421]
7: Crabgrass plant response rating (crabgrass; [7]) | Plant response rating, Bedstraw (bedstraw; Rate 250 g/ha, scale 0 to 10, 0 is no effect, 10 is complete control) | Bedstraw plant response rating (bedstraw; [9]) | Plant response rating, Soybean (soybean; [1]) | Wheat plant response rating (wheat; [2]) | Wheat plant response rating (wheat; [5]) | Plant response rating, Wild oats (wild oat; [4]) | Plant response rating, B. signalgrass (surinam grass; [1]) | Plant response rating, B. signalgrass (surinam grass; [3]) | Velvetleaf plant response rating (velvetleaf; [2]) | Corn plant response rating (corn; [2])
2: Redroot pigweed plant response rating (pigweed; [7]) | Rice plant response rating (rice; [9]) | Plant response rating, Rice (rice; [11]) | Ducksalad plant response rating (duck salad; Postemergence section (flood test species), Rate 500 g/ha, scale of 0 to 10 where 0 is no effect and 10 is complete control) | Plant response rating, Ducksalad (duck salad; [11]) | Nutsedge plant response rating (purple nutsedge; [2])
10: Plant response rating, Redroot pigweed (pigweed; [4]) | Redroot pigweed plant response rating (pigweed; [5]) | Redroot pigweed plant response rating (pigweed; [6]) | Crabgrass plant response rating (crabgrass; [6]) | Soybean plant response rating (soybean; [6]) | Wild oats plant response rating (wild oat; [5]) | Wild oats plant response rating (wild oat; [6]) | Plant response rating, Sugarbeets (sugar beet; [4]) | Sugarbeets plant response rating (sugar beet; [5]) | Sugarbeets plant response rating (sugar beet; [6]) | B. signalgrass plant response rating (surinam grass; [2]) | Velvetleaf plant response rating (velvetleaf; [5]) | Velvetleaf plant response rating (velvetleaf; [6]) | Plant response rating, Giant foxtail (giant foxtail; [4]) | Giant foxtail plant response rating (giant foxtail; [5]) | Giant foxtail plant response rating (giant foxtail; [6]) | Blackgrass plant response rating (blackgrass; [2]) | Plant response rating, Blackgrass (blackgrass; [4]) | Blackgrass plant response rating (blackgrass; [12]) | Blackgrass plant response rating (blackgrass; [6])
8: Redroot pigweed plant response rating (pigweed; [2]) | Plant response rating, Redroot pigweed (pigweed; [3]) | Plant response rating, Crabgrass (crabgrass; [1]) | Crabgrass plant response rating (crabgrass; [2]) | Plant response rating, Crabgrass (crabgrass; [3]) | Plant response rating, Crabgrass (crabgrass; [4]) | Soybean plant response rating (soybean; [2]) | Wild oats plant response rating (wild oat; [2]) | Plant response rating, Sugarbeets (sugar beet; [3]) | Plant response rating, B. signalgrass (surinam grass; [4]) | Plant response rating, Velvetleaf (velvetleaf; [3]) | Corn plant response rating (corn; [5]) | Corn plant response rating (corn; [6]) | Giant foxtail plant response rating (giant foxtail; [8]) | Plant response rating, Blackgrass (blackgrass; [1]) | Plant response rating, Blackgrass (blackgrass; [3]) | Blackgrass plant response rating (blackgrass; [8]) | Blackgrass plant response rating (blackgrass; [7])
6: Soybean plant response rating (soybean; [7]) | Plant response rating, Wild oats (wild oat; [3]) | Sugarbeets plant response rating (sugar beet; [2]) | Cocklebur plant response rating (cocklebur; [2])
1: Wheat plant response rating (wheat; [7]) | Plant response rating, Cocklebur (cocklebur; [1])
3: Plant response rating, Sugarbeets (sugar beet; [1]) | B. signalgrass plant response rating (surinam grass; [7]) | Plant response rating, Corn (corn; [1])
5: Plant response rating, Redroot pigweed (pigweed; [1]) | Soybean plant response rating (soybean; [5]) | Plant response rating, Corn (corn; [4])
4: Crabgrass plant response rating (crabgrass; [8]) | Bedstraw plant response rating (bedstraw; [10]) | Plant response rating, Soybean (soybean; [3]) | Plant response rating, Soybean (soybean; [4]) | Plant response rating, Wheat (wheat; [3]) | Plant response rating, Wheat (wheat; [4]) | Plant response rating, Velvetleaf (velvetleaf; [1]) | Plant response rating, Corn (corn; [3])
0: Rice plant response rating (rice; [10]) | Wild oats plant response rating (wild oat; [7]) | Ducksalad plant response rating (duck salad; Rate 62 g/ha, Postemergence (flood test species), scale of 0 to 10 where 0 is no effect and 10 is complete control) | Ducksalad plant response rating (duck salad; Rate 125 g/ha, Postemergence section (flood test species), scale 0 to 10, 0 is no effect, 10 is complete control) | Sugarbeets plant response rating (sugar beet; [7]) | Plant response rating, Nutsedge (purple nutsedge; [1]) | Plant response rating, Nutsedge (purple nutsedge; [3]) | Plant response rating, Nutsedge (purple nutsedge; [4]) | Nutsedge plant response rating (purple nutsedge; [5]) | Nutsedge plant response rating (purple nutsedge; [6]) | Nutsedge plant response rating (purple nutsedge; [7]) | B. signalgrass plant response rating (surinam grass; [8]) | Velvetleaf plant response rating (velvetleaf; [7]) | Plant response rating, Cocklebur (cocklebur; [3]) | Plant response rating, Cocklebur (cocklebur; [4]) | Cocklebur plant response rating (cocklebur; [6]) | Cocklebur plant response rating (cocklebur; [8]) | Cocklebur plant response rating (cocklebur; [7]) | Corn plant response rating (corn; [8]) | Corn plant response rating (corn; [7])
9: Crabgrass plant response rating (crabgrass; [5]) | Wheat plant response rating (wheat; [6]) | B. signalgrass plant response rating (surinam grass; [12]) | B. signalgrass plant response rating (surinam grass; Preemergence, Rate 500 g/ha, scale of 0 to 10 where 0 is no effect and 10 is complete control) | Plant response rating, Velvetleaf (velvetleaf; [4]) | Plant response rating, Giant foxtail (giant foxtail; [1]) | Giant foxtail plant response rating (giant foxtail; [2]) | Plant response rating, Giant foxtail (giant foxtail; [3]) | Giant foxtail plant response rating (giant foxtail; [7])
